In ChEMBL document CHEMBL5137068, “Discovery of Hexahydrofuro[3,2-b]furans as New Kinase-Selective and Orally Bioavailable JAK3 Inhibitors for the Treatment of Leukemia Harboring a JAK3 Activating Mutant” (J Med Chem, 2022):

What was measured:
U-937 [1] = test: Induction of cell cycle arrest in human U-937 cells assessed as accumulation at G0/G1 phase at 3.7 nM measured after 24 hrs by propidium iodide staining based flow cytometric analysis (reference value: 62.95%); assay type: functional
U-937 [2] = test: Induction of cell cycle arrest in human U-937 cells assessed as accumulation at G0/G1 phase at 33 nM measured after 24 hrs by propidium iodide staining based flow cytometric analysis (reference value: 62.95%); assay type: functional

Q: For `C=CC(=O)Nc1cc(Nc2ncc(Cl)c(O[C@@H]3CO[C@H]4[C@@H]3OC[C@H]4OC)n2)ccc1N(C)CCN(C)C`, which Activity (U-937 [1]) is on record?
A: The Activity was 61.57%.

Q: What about the Activity (U-937 [2]) of the same compound?
A: Its Activity is 64.92%.
